According to US20250082665A1, “EYE DROP FORMULATIONS IN THE FORM OF AN AQUEOUS SOLUTION COMPRISING 8-OXO-2'-DEOXYGUANOSINE OR A PHARMACEUTICALLY ACCEPTABLE SALT THEREOF” (RUDACURE CORPORATION, priority 2023, published 2025):

Key:
[1] = test system: corneal injuries; conditions: cited from earlier work
[2] = water solubility / solubilization of the compound of Formula 1; assay type: physicochemical

behaviour of aqueous solution obtained by heating when stored at room temperature ([2]; solubilized by heating, stored at room temperature): precipitates | solubility ([2]; water, room temperature (about 25° C.)): 1910 µg/mL
Compound: Nc1nc2c(nc(O)n2[C@H]2C[C@H](O)[C@@H](CO)O2)c(=O)[nH]1 [compound of Formula 1, 8-oxo-2′-deoxyguanosine]
corneal epithelial restoration [1]: rapid corneal epithelial restoration
